The molecules below were run on blood-glucose concentration (assay: Decrease in blood-glucose concentration in rats after oral dose (Table 1; ED30 rats Table 2)). Details: Rattus norvegicus, po, p.os. 2 mg/kg, 1 h.
Assay type: in vivo
From the text: The hypoglycemic activity of N-{4-[2-(pyrazole-1-carbonamide)-ethyl]-benzenesulphonyl}-ureas prepared according to the present invention can be noticed after their oral administration to mice, rats, rabbits and people and when determining the glucose concentration in blood with a known enzymatic method using glucose oxidase.
The exemplary comparison of effective doses (ED30) and the effect of oral dose size of the compounds prepared according to the present invention with Glibornuride, which is distinguished by its high effectiveness and good tolerance when administered to people, on the glucose concentration in the blood of rats, is given in Table 1.

| SMILES | inhibition in vivo at 2 mg/kg |
| --- | --- |
| CCCNC(=O)NS(=O)(=O)c1ccc(CCNC(=O)n2ccc(C)n2)cc1 [compound 22] | 4% |

Same assay, conditions: Rattus norvegicus, po, p.os. 2 mg/kg, 3 h

| SMILES | inhibition in vivo at 2 mg/kg |
| --- | --- |
| CCCNC(=O)NS(=O)(=O)c1ccc(CCNC(=O)n2ccc(C)n2)cc1 [compound 22] | 26% |

Same assay, conditions: Rattus norvegicus, po, p.os. 2 mg/kg, 6 h

| SMILES | inhibition in vivo at 2 mg/kg |
| --- | --- |
| CCCNC(=O)NS(=O)(=O)c1ccc(CCNC(=O)n2ccc(C)n2)cc1 [compound 22] | 23% |

Same assay, conditions: Rattus norvegicus, po, p.os. 4 mg/kg, 1 h

| SMILES | inhibition in vivo at 4 mg/kg |
| --- | --- |
| Cc1nn(C(=O)NCCc2ccc(S(=O)(=O)NC(=O)NC3CCCCC3)cc2)c(C)c1C [compound 10] | 24% |
| CCc1c(C)nn(C(=O)NCCc2ccc(S(=O)(=O)NC(=O)NC3CCCCC3)cc2)c1C [compound 11] | 16% |
| Cc1ccn(C(=O)NCCc2ccc(S(=O)(=O)NC(=O)NC3CCCC3)cc2)n1 [compound 16] | 18% |
| O=C(NC1CCCC1)NS(=O)(=O)c1ccc(CCNC(=O)n2cccn2)cc1 [compound 15] | 14% |
| Cc1cc(C)n(C(=O)NCCc2ccc(S(=O)(=O)NC(=O)NC3CCCCC3)cc2)n1 [compound 6] | 18% |

Same assay, conditions: Rattus norvegicus, po, p.os. 4 mg/kg, 3 h

| SMILES | inhibition in vivo at 4 mg/kg |
| --- | --- |
| Cc1nn(C(=O)NCCc2ccc(S(=O)(=O)NC(=O)NC3CCCCC3)cc2)c(C)c1C [compound 10] | 35% |
| CCc1c(C)nn(C(=O)NCCc2ccc(S(=O)(=O)NC(=O)NC3CCCCC3)cc2)c1C [compound 11] | 27% |
| Cc1ccn(C(=O)NCCc2ccc(S(=O)(=O)NC(=O)NC3CCCC3)cc2)n1 [compound 16] | 14% |
| O=C(NC1CCCC1)NS(=O)(=O)c1ccc(CCNC(=O)n2cccn2)cc1 [compound 15] | 5% |
| Cc1cc(C)n(C(=O)NCCc2ccc(S(=O)(=O)NC(=O)NC3CCCCC3)cc2)n1 [compound 6] | 33% |

Same assay, conditions: Rattus norvegicus, po, p.os. 4 mg/kg, 6 h

| SMILES | inhibition in vivo at 4 mg/kg |
| --- | --- |
| Cc1nn(C(=O)NCCc2ccc(S(=O)(=O)NC(=O)NC3CCCCC3)cc2)c(C)c1C [compound 10] | 28% |
| CCc1c(C)nn(C(=O)NCCc2ccc(S(=O)(=O)NC(=O)NC3CCCCC3)cc2)c1C [compound 11] | 3% |
| Cc1cc(C)n(C(=O)NCCc2ccc(S(=O)(=O)NC(=O)NC3CCCCC3)cc2)n1 [compound 6] | 23% |

Same assay, conditions: Rattus norvegicus, po, p.os. 5 mg/kg, 1 h

| SMILES | inhibition in vivo at 5 mg/kg |
| --- | --- |
| CCCNC(=O)NS(=O)(=O)c1ccc(CCNC(=O)n2ccc(C)n2)cc1 [compound 22] | 15% |

Same assay, conditions: Rattus norvegicus, po, p.os. 5 mg/kg, 3 h

| SMILES | inhibition in vivo at 5 mg/kg |
| --- | --- |
| CCCNC(=O)NS(=O)(=O)c1ccc(CCNC(=O)n2ccc(C)n2)cc1 [compound 22] | 24% |

Same assay, conditions: Rattus norvegicus, po, p.os. 5 mg/kg, 6 h

| SMILES | inhibition in vivo at 5 mg/kg |
| --- | --- |
| CCCNC(=O)NS(=O)(=O)c1ccc(CCNC(=O)n2ccc(C)n2)cc1 [compound 22] | 26% |

Same assay, conditions: Rattus norvegicus, po, p.os. 10 mg/kg, 1 h

| SMILES | inhibition in vivo at 10 mg/kg |
| --- | --- |
| Cc1nn(C(=O)NCCc2ccc(S(=O)(=O)NC(=O)NC3CCCCC3)cc2)c(C)c1C [compound 10] | 35% |
| CCCc1c(C)nn(C(=O)NCCc2ccc(S(=O)(=O)NC(=O)NC3CCCCC3)cc2)c1C [compound 12] | 14% |
| CCCCc1c(C)nn(C(=O)NCCc2ccc(S(=O)(=O)NC(=O)NC3CCCCC3)cc2)c1C [compound 13] | 0% |
| CCc1c(C)nn(C(=O)NCCc2ccc(S(=O)(=O)NC(=O)NC3CCCCC3)cc2)c1C [compound 11] | 29% |
| O=C(NC1CCCCC1)NS(=O)(=O)c1ccc(CCNC(=O)n2cc(Cl)cn2)cc1 [compound 5] | 16% |
| Cc1ccn(C(=O)NCCc2ccc(S(=O)(=O)NC(=O)NC3CCCC3)cc2)n1 [compound 16] | 16% |
| CCCNC(=O)NS(=O)(=O)c1ccc(CCNC(=O)n2ccc(C)n2)cc1 [compound 22] | 25% |
| O=C(NC1CCCC1)NS(=O)(=O)c1ccc(CCNC(=O)n2cccn2)cc1 [compound 15] | 20% |
| Cc1nn(C(=O)NCCc2ccc(S(=O)(=O)NC(=O)NC3CCCCC3)cc2)cc1Cl [compound 9] | 24% |
| Cc1cc(C)n(C(=O)NCCc2ccc(S(=O)(=O)NC(=O)NC3CCCCC3)cc2)n1 [compound 6] | 23% |

Same assay, conditions: Rattus norvegicus, po, p.os. 10 mg/kg, 3 h

| SMILES | inhibition in vivo at 10 mg/kg |
| --- | --- |
| Cc1nn(C(=O)NCCc2ccc(S(=O)(=O)NC(=O)NC3CCCCC3)cc2)c(C)c1C [compound 10] | 49% |
| CCc1c(C)nn(C(=O)NCCc2ccc(S(=O)(=O)NC(=O)NC3CCCCC3)cc2)c1C [compound 11] | 53% |
| O=C(NC1CCCCC1)NS(=O)(=O)c1ccc(CCNC(=O)n2cc(Cl)cn2)cc1 [compound 5] | 0% |
| Cc1ccn(C(=O)NCCc2ccc(S(=O)(=O)NC(=O)NC3CCCC3)cc2)n1 [compound 16] | 20% |
| CCCNC(=O)NS(=O)(=O)c1ccc(CCNC(=O)n2ccc(C)n2)cc1 [compound 22] | 29% |
| O=C(NC1CCCC1)NS(=O)(=O)c1ccc(CCNC(=O)n2cccn2)cc1 [compound 15] | 16% |
| Cc1nn(C(=O)NCCc2ccc(S(=O)(=O)NC(=O)NC3CCCCC3)cc2)cc1Cl [compound 9] | 7% |
| Cc1cc(C)n(C(=O)NCCc2ccc(S(=O)(=O)NC(=O)NC3CCCCC3)cc2)n1 [compound 6] | 40% |

Same assay, conditions: Rattus norvegicus, po, p.os. 10 mg/kg, 6 h

| SMILES | inhibition in vivo at 10 mg/kg |
| --- | --- |
| Cc1nn(C(=O)NCCc2ccc(S(=O)(=O)NC(=O)NC3CCCCC3)cc2)c(C)c1C [compound 10] | 17% |
| CCCc1c(C)nn(C(=O)NCCc2ccc(S(=O)(=O)NC(=O)NC3CCCCC3)cc2)c1C [compound 12] | 10% |
| CCCNC(=O)NS(=O)(=O)c1ccc(CCNC(=O)n2ccc(C)n2)cc1 [compound 22] | 35% |
| O=C(NC1CCCC1)NS(=O)(=O)c1ccc(CCNC(=O)n2cccn2)cc1 [compound 15] | 7% |
| Cc1nn(C(=O)NCCc2ccc(S(=O)(=O)NC(=O)NC3CCCCC3)cc2)cc1Cl [compound 9] | 0% |
| Cc1cc(C)n(C(=O)NCCc2ccc(S(=O)(=O)NC(=O)NC3CCCCC3)cc2)n1 [compound 6] | 35% |

Same assay, conditions: Rattus norvegicus, po, p.os. 20 mg/kg, 1 h

| SMILES | inhibition in vivo at 20 mg/kg |
| --- | --- |
| CCCNC(=O)NS(=O)(=O)c1ccc(CCNC(=O)n2ccc(C)n2)cc1 [compound 22] | 45% |

Same assay, conditions: Rattus norvegicus, po, p.os. 20 mg/kg, 3 h

| SMILES | inhibition in vivo at 20 mg/kg |
| --- | --- |
| CCCNC(=O)NS(=O)(=O)c1ccc(CCNC(=O)n2ccc(C)n2)cc1 [compound 22] | 56% |

Same assay, conditions: Rattus norvegicus, po, p.os. 20 mg/kg, 6 h

| SMILES | inhibition in vivo at 20 mg/kg |
| --- | --- |
| CCCNC(=O)NS(=O)(=O)c1ccc(CCNC(=O)n2ccc(C)n2)cc1 [compound 22] | 56% |

Same assay, conditions: Rattus norvegicus, po, p.os. 50 mg/kg, 1 h

| SMILES | inhibition in vivo at 50 mg/kg |
| --- | --- |
| Cc1nn(C(=O)NCCc2ccc(S(=O)(=O)NC(=O)NC3CCCCC3)cc2)c(C)c1C [compound 10] | 48% |
| CCCc1c(C)nn(C(=O)NCCc2ccc(S(=O)(=O)NC(=O)NC3CCCCC3)cc2)c1C [compound 12] | 22% |
| CCCCc1c(C)nn(C(=O)NCCc2ccc(S(=O)(=O)NC(=O)NC3CCCCC3)cc2)c1C [compound 13] | 18% |
| CCc1c(C)nn(C(=O)NCCc2ccc(S(=O)(=O)NC(=O)NC3CCCCC3)cc2)c1C [compound 11] | 57% |
| O=C(NC1CCCCC1)NS(=O)(=O)c1ccc(CCNC(=O)n2cc(Cl)cn2)cc1 [compound 5] | 38% |
| CCCNC(=O)NS(=O)(=O)c1ccc(CCNC(=O)n2ccc(C)n2)cc1 [compound 22] | 54% |

Same assay, conditions: Rattus norvegicus, po, p.os. 50 mg/kg, 3 h

| SMILES | inhibition in vivo at 50 mg/kg |
| --- | --- |
| Cc1nn(C(=O)NCCc2ccc(S(=O)(=O)NC(=O)NC3CCCCC3)cc2)c(C)c1C [compound 10] | 62% |
| CCCc1c(C)nn(C(=O)NCCc2ccc(S(=O)(=O)NC(=O)NC3CCCCC3)cc2)c1C [compound 12] | 39% |
| CCCCc1c(C)nn(C(=O)NCCc2ccc(S(=O)(=O)NC(=O)NC3CCCCC3)cc2)c1C [compound 13] | 27% |
| CCc1c(C)nn(C(=O)NCCc2ccc(S(=O)(=O)NC(=O)NC3CCCCC3)cc2)c1C [compound 11] | 60% |
| O=C(NC1CCCCC1)NS(=O)(=O)c1ccc(CCNC(=O)n2cc(Cl)cn2)cc1 [compound 5] | 36% |
| CCCNC(=O)NS(=O)(=O)c1ccc(CCNC(=O)n2ccc(C)n2)cc1 [compound 22] | 55% |

Same assay, conditions: Rattus norvegicus, po, p.os. 50 mg/kg, 6 h

| SMILES | inhibition in vivo at 50 mg/kg |
| --- | --- |
| Cc1nn(C(=O)NCCc2ccc(S(=O)(=O)NC(=O)NC3CCCCC3)cc2)c(C)c1C [compound 10] | 52% |
| CCCc1c(C)nn(C(=O)NCCc2ccc(S(=O)(=O)NC(=O)NC3CCCCC3)cc2)c1C [compound 12] | 32% |
| CCCCc1c(C)nn(C(=O)NCCc2ccc(S(=O)(=O)NC(=O)NC3CCCCC3)cc2)c1C [compound 13] | 3% |
| CCc1c(C)nn(C(=O)NCCc2ccc(S(=O)(=O)NC(=O)NC3CCCCC3)cc2)c1C [compound 11] | 53% |
| O=C(NC1CCCCC1)NS(=O)(=O)c1ccc(CCNC(=O)n2cc(Cl)cn2)cc1 [compound 5] | 12% |
| CCCNC(=O)NS(=O)(=O)c1ccc(CCNC(=O)n2ccc(C)n2)cc1 [compound 22] | 48% |

Same assay, conditions: Rattus norvegicus, po, p.os., Table 1

| SMILES | ED50 |
| --- | --- |
| Cc1nn(C(=O)NCCc2ccc(S(=O)(=O)NC(=O)NC3CCCCC3)cc2)c(C)c1C [compound 10] | 4 mg/kg |
| CCc1c(C)nn(C(=O)NCCc2ccc(S(=O)(=O)NC(=O)NC3CCCCC3)cc2)c1C [compound 11] | 4.8 mg/kg |
| Cc1cc(C)n(C(=O)NCCc2ccc(S(=O)(=O)NC(=O)NC3CCCCC3)cc2)n1 [compound 6] | 3.5 mg/kg |
